Test results published in patent US20020142347A1, “Biosensor” (BIOSENSOR ApS, priority 2000, published 2002).

Target: T1, FACI53 (Bos taurus, UniProt P07107, A54C)
T1 construct: badan (6-bromoacetyl-2-dimethylaminonaphthalene) fluorophore on the introduced Cys-53; made in house; host or cells: E. coli BL21(DE3)pLysS, pET3a vector
T1 sequence (P07107 2-87 A54C): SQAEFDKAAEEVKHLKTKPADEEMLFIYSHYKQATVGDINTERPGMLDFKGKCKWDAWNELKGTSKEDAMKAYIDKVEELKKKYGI
Test: Isothermal titration calorimetry of acyl-CoA binding to FACI53
Design: species or system bovine
Description: Reference is made to FIG. 2. and FIG. 3. which depict the emission spectra of FACI24 and FACI53 titrated with increasing concentrations of CoA, C4-, C8-, C12-, C16- and C20-CoA esters. The addition of ligand and measurement of emission of FACI24 and FACI53 was performed as described in example 2. The increased addition of ligand to the mutated and modified proteins caused a proportional spectral change. The normal physiological binding profile was confirmed by direct binding studies using isoelectrical focusing as predicted in FIG. 4. […] The results clearly indicate that fluorescence emission at 470 nm may provide a measure for the concentration of free unbound long-chain(>C12)-acyl-CoA ester.
Quantitative determination of binding affinities (KD) were performed by isothermal titration micro calorimetry as previously described (Faergeman et. al., 1996; Biochemistry 35, 14118-14126). Qualitative evaluation of relative binding affinities were determined by isoelectrical focusing using the Pharmacia Fast Gel system according to the prescriptions given by the manufacture. […] The fluorescence emission was measured on a SPEX FLOUROLOG (Industries Inc, Edison N.J., USA) with excitation at 400 nm and emission scan from 400 nm to 550 nm. […]

CCCCCCCCCCCCCCCC(=O)SCCNC(=O)CCNC(=O)[C@H](O)C(C)(C)COP(=O)(O)OP(=O)(O)OC[C@H]1O[C@@H](n2cnc3c(N)ncnc32)[C@H](O)[C@@H]1OP(=O)(O)O [C16:0-CoA, palmitoyl-CoA]
Binding to FACI53 by isothermal titration calorimetry: binding was confirmed
